Measured values from patent US5856535A, “Aminosterol ester compounds” (priority 1996, dated 1999).
≈ marks a conversion by molar mass, not a printed value. Entries after “also recorded” stand apart in the source; their conditions may differ. Like-named read-outs stand apart in the source and are kept apart here.

What was measured:
[1] = test system: human microvascular cells; assay: endothelial cell cord formation assay (human microvascular cells, VEGF and bFGF, collagen matrix); assay type: cell-based; conditions: for inhibition of angiogenesis (in words): higher doses; for minimal effective concentration: Homo sapiens, Endothelial cell
Description: Endothelial cells have the capacity in vitro to form tubular aggregates resembling capillaries in various early stages of formation. This conversion occurs under relatively specific conditions, in which essential growth factors along with an effective substratum are provided. It has been shown that both the interaction of growth factors with the endothelial cell and its attachment to a substratum activate the NHE. The activation of this exchanger is believed to be required for subsequent morphologic transformation of the endothelial cell into a multicellular tubular structure.
To assess the effect of compounds on the cord-like structures formed by human microvascular cells when plated in the presence of VEGF (Vascular Endothelial Growth Factor) and basic fibroblast growth factor on a collagen matrix, a standard cord formation assay was performed using the method described by Goto, et al., "Synergistic Effects of Vascular Endothelial Growth Factor and Basic Fibroblast Growth Factor on the Proliferation and Cord Formation of Bovine Capillary Endothelial Cells Within Collagen Gels," Laboratory Investigation, Vol. 69, No. 5, 1993, pp. 508-517. This article is entirely incorporated herein by reference.

[2] = test system: chick embryo vitelline capillaries; assay: chick embryo vitelline capillary regression assay; assay type: in vivo; design: key to Chick embryo vitelline capillary regression: +: Vascular reactivity; 0: No vascular reactivity; +/-: Equivocal reactivity
Description: Using the chick embryo vitelline capillaries assay, various aminosterol compounds were tested for their ability to induce capillary regression. Each compound was applied in 0.1 ml of 15% Ficol 400 and PBS onto the embryo, and vascular regression was assessed after 60 minutes. These tests were conducted by the chorioallantoic membrane anti-angiogenesis assay by applying the material to be assayed to 3 day old fertilized chick embryos in the manner described by Wilks et al., "Inhibition of Angiogenesis With Combination Angiostatic Steroids and Suramin," Radiation Biology, Vol. 60, Nos. 1/2, 1991, pp. 73-77, which article is entirely incorporated herein by reference.
The 3-day chick embryo consists of an embryonic disc from which numerous vessels emerge and return, forming a "figure 8"-shaped structure--the embryo in the center with vascular loops extending outward over both poles. […] Following a lag period of around 15 minutes, the constriction of continuity between capillary and secondary vessels, generally on the "venous" side, was observed. Continued pulsatile blood flow progressed, resulting in a "swelling" of the blind tube, followed by a pinching off of the remaining connection and formation of an enclosed vascular sac resembling a "blood island." This process progressed until only the largest vessels remained intact.

C. albicans = assay: antibiotic activity, C. albicans; assay type: cell-based; conditions: Candida albicans
E. Coli = assay: antibiotic activity, E. Coli; assay type: cell-based; conditions: Escherichia coli
S. aureus = assay: antibiotic activity, S. aureus; assay type: cell-based; conditions: Staphylococcus aureus
P. aerug = assay: antibiotic activity, P. aerug; assay type: cell-based
red blood cells = assay: swelling of red blood cells; assay type: cell-based
splenocytes = assay: mitogen proliferation assay (splenocytes of treated mice, Con A); assay type: in vivo; conditions: for potency in the mitogen proliferation assay (in words): mouse, in vivo; for Rel. potency to MSI-1436, Mitogen Proliferation Assay: 10 mg/kg iv
Description: For the attached Tables, the mitogen proliferation assay was performed by treating mice (male or female) with various amounts of the aminosterol test compounds. Some time later (typically between 2 hours and 14 days), the mice are sacrificed and their spleens removed. Splenocytes are harvested and cultured in the presence of between 1-10 μg/ml of Con A (Sigma) for 48 hours. See James Morgan, "Monoclonal Antibody Production," Modern Methods in Pharmacology, pp. 29-67, eds., Spector and Back, 1988. This excerpt is entirely incorporated herein by reference. Cell proliferation is monitored either by direct cell counting or by measurement of the incorporation of radioactive thymidine.

[3] = test system: Xenopus laevis Stages 59-60 tadpoles; assay: tadpole assay; assay type: in vivo; conditions: for effect on embryonic epithelium / epithelial shedding (in words): 10 μg/ml where stated
[4] = test system: human ovarian carcinoma, SKOV3; assay: anticancer activity against SKOV3; assay type: cell-based
LLC = LLC MTT; assay type: cell-based; conditions: Lewis lung carcinoma, 48 h; Table II; read-out: Minimum Effective Concentration, LLC MTT
Description: (§1) The MTT assay for cell number is performed as follows. Cells are counted on a hemocytometer and diluted to a concentration of approx. 10,000 cells/well (55,000 cells/ml×0.18 ml). Cells are then plated in a 96 well microtiter plate and allowed to attach overnight. The next day, compounds are serially diluted from 1000 to 15.6 μg/ml and run in duplicate. 20 μl of each dilution are transferred to the pre-seeded microtiter plates. The final concentrations are 100 to 1.56 μg/ml. The plates are then incubated for 48 hours at 37° C. in 5% CO2. After 48 hours, MTT solution is added. The plate is re-incubated for 4 hours. Readings are done by removing all but 30 μl of media and MTT solution and dissolving the formazan crystals with DMSO. The formazan is dissolved by mixing on a rotating plate at low speed for about 30 minutes. Absorbance of converted dye is measured at a wavelength of 560 nm with background subtraction at 630 nm. The percent survival is determined by a comparison between the mean absorbance of the duplicate test lanes and the growth control.

melanoma cells = assay: MTT assay for cell number; assay type: cell-based; conditions: for minimal effective concentration: 48 h, Table II, read-out: Minimum Effective Concentration, MTT assay
Description: In Table V, several aminosterol esters show efficacy in killing melanoma cells in the MTT assay.
as §1

[5] = inhibition of MSI-1436 binding; conditions: 3H-MSI-1436 at 20 μg/mL
HIV = assay: inhibition of HIV replication in vitro (HIV Inhib.); assay type: cell-based; conditions: for inhibition at 0.14 µM: Human immunodeficiency virus 1, read-out: % Inhib of HIV
in vitro = conditions: human, pbmc

In the case of `COC(=O)CC[C@@H](C)[C@H]1CC[C@H]2[C@@H]3[C@H](O)C[C@@H]4C[C@@H](NCCCNCCCCNCCCN)CC[C@]4(C)[C@H]3CC[C@]12C` [Compound 411], the “inhibition of angiogenesis (in words)” value [1] is reported as “inhibit angiogenesis at higher doses” and the “Chick embryo vitelline capillary regression” value ([2]; 1 μg applied, 60 minutes) is reported as “+/-”.
`CC(CCC(=O)O)[C@H]1CCC2C3C(CC[C@@]21C)[C@@]1(C)CC[C@H](NCCCNCCCCNCCCN)C[C@@H]1C[C@H]3O` (stereo partly shown) gave an MIC (C. albicans) of 32 µg/mL (≈ 55.5 µM), an MIC (E. Coli) of 32 to 64 µg/mL (≈ 55.5 to 111 µM) and an MIC (S. aureus) of 16 µg/mL (≈ 27.7 µM). For the same compound, the MIC (P. aerug) was 16 µg/mL (≈ 27.7 µM).
With `COC(=O)CC[C@@H](C)[C@H]1CC[C@H]2[C@@H]3C[C@@H](O)[C@H]4C[C@@H](NCCCNCCCCNCCCN)CC[C@]4(C)[C@H]3CC[C@]12C` [Compound 466] the “induction of swelling of red blood cells (in words)” value (“induction” below) (red blood cells) was “induce swelling of red blood cells” and the “potency in the mitogen proliferation assay (in words)” value (from here on “potency … (in words)”) (splenocytes) was “substantial potency”.
For `COC(=O)CC[C@@H](C)[C@H]1CC[C@H]2[C@@H]3C[C@@H](O)[C@H]4C[C@@H](NCCCNCCCCN)CC[C@]4(C)[C@H]3CC[C@]12C` [Compound 566], the “induction” value (red blood cells) was “induce swelling of red blood cells”.
Compound `COC(=O)CCC(C)[C@H]1CCC2C3C(CC[C@@]21C)[C@@]1(C)CC[C@@H](NCCCNCCCCN)C[C@H]1C[C@H]3O` (stereo partly shown) [drawing 38] has an MIC (C. albicans) of 64 µg/mL (≈ 120 µM), an MIC (E. Coli) of 32 to 64 µg/mL (≈ 59.9 to 120 µM) and an MIC (S. aureus) of 4 µg/mL (≈ 7.49 µM). It also gave an MIC (P. aerug) of 64 µg/mL (≈ 120 µM).
For `C=C(C)C(=O)CC[C@@H](C)[C@H]1CC[C@H]2[C@@H]3[C@H](O)C[C@H]4C[C@@H](NCCCNCCCCN)CC[C@]4(C)[C@H]3CC[C@]12C` [Compound 1361, reference compound], the “induction” value (red blood cells) was “induce swelling of red blood cells”.
In the case of `CC(CCC(=O)O)[C@H]1CCC2C3C(CC[C@@]21C)[C@@]1(C)CC[C@@H](NCCCNCCCCNCCCN)C[C@H]1C[C@H]3O` (stereo partly shown), the MIC (E. Coli) is reported as 8 µg/mL (≈ 13.9 µM) and the MIC (S. aureus) is reported as 64 µg/mL (≈ 111 µM).
With `CC(C)C(CO)(CC[C@@H](C)[C@H]1CC[C@H]2[C@@H]3[C@H](O)C[C@H]4C[C@@H](NCCCNCCCCN)CC[C@]4(C)[C@H]3CC[C@]12C)OS(=O)(=O)O` (stereo partly shown) [Compound 1437] the “time to shedding of larval skin” value ([3]; 10 μg/ml) was ≤ 60 min, the “effect on embryonic epithelium / epithelial shedding (in words)” value [3] was “dramatic effect on the embryonic epithelium covering the tadpole tail; also recorded: larval skin was observed to shed off in a sheet” and the “anticancer activity (in words)” value [4] was “exhibit anticancer activity”.
Work on `CC(C)[C@@H](CC[C@@H](C)[C@H]1CC[C@H]2[C@@H]3[C@H](O)C[C@H]4C[C@@H](NCCCNCCCCN)CC[C@]4(C)[C@H]3CC[C@]12C)OS(=O)(=O)O` [drawing 92] yielded a minimal effective concentration (LLC) of 13.2 µg/mL and a minimal effective concentration (melanoma cells) of 7.8 µg/mL.
In the case of `CC(CCC(CO)(OS(=O)(=O)O)C(C)C)[C@H]1CCC2C3C(CC[C@@]21C)[C@@]1(C)CC[C@H](NCCCNCCCCN)C[C@@H]1C[C@H]3O` (stereo partly shown) [drawing 52], the MIC (C. albicans) is reported as 16 µg/mL (≈ 24.3 µM), the MIC (E. Coli) is reported as 4 µg/mL (≈ 6.08 µM) and the MIC (S. aureus) is reported as 2 µg/mL (≈ 3.04 µM). For the same compound, the MIC (P. aerug) was 16 µg/mL (≈ 24.3 µM).
For `CO[C@@H]1[C@H](OC(=O)/C=C/C=C/C=C/C=C/C(=O)O)CC[C@]2(CO2)[C@H]1[C@@]1(C)O[C@@H]1CC=C(C)C` [Fumagillin, reference compound], the minimal effective concentration ([1]; text to the table, read-out: concentration at which cord formation is inhibited) was 10 µg/mL.
For `COC(=O)CC[C@@H](C)[C@H]1CC[C@H]2[C@@H]3[C@H](O)C[C@@H]4C[C@H](NCCN)CC[C@]4(C)[C@H]3CC[C@]12C` [Compound 410], the “inhibition of angiogenesis (in words)” value [1] was “inhibit angiogenesis at higher doses”, the “effect on vitelline capillaries (in words)” value ([2]; 3- to 5-day chick embryo) was “substantial activity” and the “effect on embryonic epithelium / epithelial shedding (in words)” value [3] was “functionally similar to compound 1437”.
In the case of `COC(=O)CC[C@@H](C)[C@H]1CC[C@H]2[C@@H]3CC[C@@H]4C[C@H](NCCCNCCCCNCCCN)CC[C@]4(C)[C@H]3CC[C@]12C` [Compound 569], the “% Inhib. of MSI-1436 Binding @ 100 μg/mL” value [5] is reported as 78%, the “Rel. potency to MSI-1436, Mitogen Proliferation Assay” value (splenocytes) is reported as 0.50 and the “potency … (in words)” value (splenocytes) is reported as “substantial potency”. For the same compound, the “inhibition of HIV relative to compound 1436 (in words)” value (HIV) was “higher inhibition of HIV than compound 1436”, the inhibition at 0.14 µM (HIV) was 91% and the cytotoxicity at 14 µM (in vitro) was 9%. For the same compound, the “MTT assay IC50” value (melanoma cells; Tables III-V) was 15 µg/mL and the IC50 (melanoma cells; Tables III-V, read-out: MTT assay IC50) was 14.5 µg/mL (≈ 25.2 µM).
Work on `CC(CC[C@@H](OS(=O)(=O)O)C(C)C)[C@H]1CCC2C3C(CC[C@@]21C)[C@@]1(C)CC[C@H](NCCCNCCCCNCCCN)C[C@@H]1C[C@H]3O` (stereo partly shown) [drawing 93] yielded a minimal effective concentration (LLC) of 16.7 µg/mL and a minimal effective concentration (melanoma cells) of 6.9 µg/mL.
`CC(CC[C@@H](OS(=O)(=O)O)C(C)C)[C@H]1CCC2C3C(CC[C@@]21C)[C@@]1(C)CC[C@H](NCCCNCCCCNCCCN)C[C@@H]1C[C@H]3O` (stereo partly shown) [drawing 51] showed an MIC (C. albicans) of 8 µg/mL (≈ 11.7 µM), an MIC (E. Coli) of 1 to 2 µg/mL (≈ 1.46 to 2.92 µM) and an MIC (S. aureus) of 1 µg/mL (≈ 1.46 µM). For the same compound, the MIC (P. aerug) was 4 µg/mL (≈ 5.84 µM).
With `CC(C)CCCC(C)[C@H]1CCC2C3CC[C@H]4C[C@@H](NCCCNCCCCNCCCN)CC[C@]4(C)C3CC[C@@]21C` (stereo partly shown) the minimal effective concentration ([1]; Table II, read-out: Minimum Effective Concentration, HM Cord Formation) was 10 µg/mL and the minimal effective concentration (melanoma cells) was 3 µg/mL.
In the case of `COC(=O)CCC(C)[C@H]1CCC2C3C(CC[C@@]21C)[C@@]1(C)CC[C@H](NCCCNCCCCN)C[C@H]1C[C@H]3O` (stereo partly shown), the MIC (C. albicans) is reported as 256 µg/mL (≈ 480 µM), the MIC (E. Coli) is reported as 256 µg/mL (≈ 480 µM) and the MIC (S. aureus) is reported as 64 µg/mL (≈ 120 µM). For the same compound, the MIC (P. aerug) was > 256 µg/mL.
With `CC(CCC(CO)(OS(=O)(=O)O)C(C)C)[C@H]1CCC2C3C(CC[C@@]21C)[C@@]1(C)CC[C@H](NCCCNCCCCN)C[C@@H]1C[C@H]3O` (stereo partly shown) [drawing 99] the “% Inhib. of MSI-1436 Binding @ 100 μg/mL” value [5] was 14%, the “Rel. potency to MSI-1436, Mitogen Proliferation Assay” value (splenocytes) was 1.08 and the inhibition at 0.14 µM (HIV) was -44%. The cytotoxicity at 14 µM (in vitro) was 0%.
For `COC(=O)CC[C@@H](C)[C@H]1CC[C@H]2[C@@H]3CC[C@H]4C[C@@H](NCCCNCCCCNCCCN)CC[C@]4(C)[C@H]3CC[C@]12C` [Compound 459], the “induction” value (red blood cells) was “induce swelling of red blood cells” and the “potency … (in words)” value (splenocytes) was “substantial potency”.
